The results in this text go back to PubChem BioAssay AID651940 (Sanford-Burnham Center for Chemical Genomics, 2012).

The target of the experiment is C-X-C chemokine receptor type 6 (Mus musculus) (UniProt Q9EQ16). Nature of the experiment: antagonism of murine CXCR6 beta-arrestin recruitment – cell-based, mouse ortholog, CHO-K1, luminescence, selectivity assay for human CXCR6 antagonist project, SAR follow-up (AID 651940). Particulars: CHO-K1 mCXCR6 beta-arrestin PathHunter. For orientation: Arrestin recruitment assays detect the binding of arrestin to an activated receptor.
Sequence of C-X-C chemokine receptor type 6 (Mus musculus) (Q9EQ16 whole entry, looked up): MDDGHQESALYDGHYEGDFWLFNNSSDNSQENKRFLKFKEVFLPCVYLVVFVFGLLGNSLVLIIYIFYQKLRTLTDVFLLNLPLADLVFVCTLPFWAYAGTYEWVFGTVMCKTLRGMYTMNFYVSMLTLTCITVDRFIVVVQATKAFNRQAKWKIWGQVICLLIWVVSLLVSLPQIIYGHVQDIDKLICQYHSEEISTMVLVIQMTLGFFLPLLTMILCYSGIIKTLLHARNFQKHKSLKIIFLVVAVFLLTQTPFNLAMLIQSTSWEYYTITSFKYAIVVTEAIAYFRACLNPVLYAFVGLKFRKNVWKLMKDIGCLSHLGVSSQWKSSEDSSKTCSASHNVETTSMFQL

Activity calls are given as the source filed them.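 Rule for the calls: active = IC50 below 50 µM, and active in both the human and murine receptor assays; inactive = the rest.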 Bounds are passed on as bounds.

As for `COc1cc(C(=O)NC2CC3CCCC(C2)N3CC(=O)Nc2ccccc2)cc(OC)c1OC` (configuration not stated), the IC50 (as a rule, the concentration needed to halve the response being measured) was > 79 µM (inactive). As for `COc1ccc(NC(=O)CN2C3CCCC2CC(NC(=O)c2cc(OC)c(OC)c(OC)c2)C3)cc1` (configuration not stated), the figure is > 79 µM (inactive); as for `COc1cc(C(=O)NC2CC3CCCC(C2)N3CC(=O)Nc2ccc(F)cc2)cc(OC)c1OC` (configuration not stated), > 79 µM (inactive); as for `COc1cc(C(=O)NC2CC3CCCC(C2)N3CC(=O)Nc2ccc(Cl)cc2)cc(OC)c1OC` (configuration not stated), > 79 µM (inactive).

`COc1cc(C(=O)NC2CC3CCCC(C2)N3CC(=O)Nc2ccc(C)cc2)cc(OC)c1OC` (configuration not stated): the IC50 entry is “inactive”. The value for `COc1ccc(CN2C3CCCC2CC(NC(=O)c2cc(OC)c(OC)c(OC)c2)C3)cc1` (configuration not stated) was > 79 µM (inactive); that for `COc1ccccc1NC(=O)CN1C2CCCC1CC(NC(=O)c1cc(OC)c(OC)c(OC)c1)C2` (configuration not stated) was > 79 µM (inactive).
